Measured values published in patent publication US4774230A, “Glucuronic acid derivatives of opioid antagonists” (Ivax Laboratories, Inc., priority 1988, dated 1988).
Counter-ions that a name gives are not always drawn.

What was measured:
[1] = system: intestinal transit; assay: charcoal meal assay (gastrointestinal motility), alleviation of morphine-induced hypomotility; type: in vivo, mice; conditions: for effect on intestinal transit in the absence of morphine: no morphine, groups 4 and 6; for protection of the intestine against the depressant effect of morphine / percentage of intestine traveled compared with group 1 (no morphine): with morphine; for protection of the intestine against the depressant effect of morphine: groups 5 and 7; for percentage of intestine traveled compared with group 1 (no morphine): groups 5 and 7 vs group 1
Experimental: Summary of the Results of the Charcoal Meal Assay^a
(Gastrointestial Motility) in Mice Given Nalmefene HCl
and Nalmefene-β-D-Glucuronide
^b The first vehicle or drug listed under Treatment was given 30
minutes before the second vehicle or drug listed. The results were
determined 30 min later. All treatments are p.o. and given in a volume of
0.3 ml. Doses were 10 mg/kg for morphine, 15 mg/kg or 2.9 ×

[2] = system: opioid-dependant animals (central nervous system); assay: Rapid Quantitative In Vivo Assay for Narcotic Antagonist (skin tail temperature rise, CNS withdrawal sign); conditions: FIG. 2; injection of 1000 μg/kg
Excerpt: The Rapid Quantitative In Vivo Assay for Narcotic Antagonist of Katovich et al. (Substance and Alcohol Actions/Misuse, vol 5: 87095, 1984) was used. This assay is based on the extreme sensitivity of opioid-dependant animals to narcotic antagonists. Injection of these animals with a narcotic antagonist produces severe central nervous system withdrawal signs. One of these signs is an abrupt rise in the skin temperature of the tail.

[3] = absorption and distribution of ^14 C labelled nalmefene glucuronide after oral administration; type: in vivo, rats
Excerpt: Therefore the glucuronide of an opioid antagonist provides a means of preventing narcotic-induced intestinal hypomotility without interfering with central nervous system effects of narcotics, such as analgesia.

[4] = analysis of blood, urine and feces after oral nalmefene (free nalmefene versus nalmefene glucuronide); type: in vivo, rats; conditions: oral administration
Excerpt: Such a high degree of biotransformation is common for this type of drug.

[5] = system: constipation; conditions: patients not exposed to an exogenous opioid; Kreek et al., Lancet 1983; cited from earlier work

Compound: CN1CC[C@]23c4c5ccc(O)c4O[C@H]2[C@@H](O)C=C[C@H]3[C@H]1C5 [Morphine]
- Percent Meal Traveled ± S.E.M. ([1]; Group 2: Saline + Morphine, morphine 10 mg/kg p.o. given 30 min after saline, N = 8, significantly different (p < 0.05) from Saline + Saline controls): 28 ± 2%
- Percent Meal Traveled ± S.E.M. ([1]; Group 3: Morphine + Saline, morphine 10 mg/kg p.o. given 30 min before saline, N = 8, p < 0.05 vs Saline + Saline, no difference vs Saline + Morphine): 31 ± 3%
- reduction of the percentage of the intestine traveled ([1]; morphine, groups 2 and 3): reduced the percentage of the intestine traveled by more than half

Compound: C=C1CC[C@@]2(O)[C@H]3Cc4ccc(O)c5c4[C@@]2(CCN3CC2CC2)[C@H]1O5 [Nalmefene HCl]
- Percent Meal Traveled ± S.E.M. ([1]; Group 6: Saline + Nalmefene HCl, 2.9 × 10^-6 M/kg p.o., N = 8): 63 ± 2%
- Percent Meal Traveled ± S.E.M. ([1]; Group 7: Morphine (10 mg/kg p.o., 30 min before) + Nalmefene HCl 2.9 × 10^-6 M/kg p.o., N = 5, no difference vs Saline + Saline, p < 0.05 vs Morphine + Saline): 66 ± 14%

Compound: C=C1CC[C@@]2(O)[C@H]3Cc4ccc(O[C@@H]5O[C@H](C(=O)O)[C@@H](O)[C@H](O)[C@H]5O)c5c4[C@@]2(CCN3CC2CC2)[C@H]1O5 [nalmefene glucuronide, nalmefene-3β-D-glucuronide]
- effect on skin tail temperature [2]: no effect
- Percent Meal Traveled ± S.E.M. ([1]; Group 4: Saline + Nalmefene Glucuronide, 15 mg/kg or 2.9 × 10^-6 M/kg p.o., N = 8, no significant difference vs Saline + Saline): 66 ± 3%
- Percent Meal Traveled ± S.E.M. ([1]; Group 5: Morphine (10 mg/kg p.o., 30 min before) + Nalmefene Glucuronide 15 mg/kg or 2.9 × 10^-6 M/kg p.o., N = 5, no difference vs Saline + Saline, p < 0.05 vs Morphine + Saline): 58 ± 12%
- effect on intestinal transit in the absence of morphine [1]: neither nalmefene (group 6) nor nalmefene glucuronide (group 4) had any significant effect
- effectiveness against morphine-induced intestinal hypomotility compared with nalmefene ([1]; vs nalmefene): as effective as nalmefene
- protection of the intestine against the depressant effect of morphine [1]: protected the intestine against the depressant effect of morphine
- percentage of intestine traveled compared with group 1 (no morphine) [1]: not significantly less than in the group (group 1) where no morphine was present
- form of the drug in the cecum ([3]; 2 hours after oral dosing): almost exclusively free nalmefene
- part of the dose present in the small intestine still as nalmefene glucuronide ([3]; 2 hours after oral dosing): about 85%
- part of the dose which had reached the cecum ([3]; 2 hours after oral dosing): 2-3%
- radioactivity in plasma ([3]; 2 hours after oral dosing): No radioactivity could be detected in plasma
- absorption following oral administration ([3]; ^14 C label, oral doses as high as 40 mg/kg): not absorbed to any measurable extent

Compound: C=C1CC[C@@]2(O)[C@H]3Cc4ccc(O)c5c4[C@@]2(CCN3CC2CC2)[C@H]1O5 [nalmefene, 6-methylene-6-desoxy-N-cyclopropylmethyl-14-hydroxydihydronormorphine]
- biotransformation by "first-pass" metabolism [4]: almost totally biotransformed
- effect on intestinal transit in the absence of morphine [1]: neither nalmefene (group 6) nor nalmefene glucuronide (group 4) had any significant effect
- protection of the intestine against the depressant effect of morphine [1]: protected the intestine against the depressant effect of morphine
- percentage of intestine traveled compared with group 1 (no morphine) [1]: not significantly less than in the group (group 1) where no morphine was present

Compound: C=CCN1CC[C@]23c4c5ccc(O)c4O[C@H]2C(=O)CC[C@@]3(O)[C@H]1C5 [naloxone]
- relief of constipation [5]: relieves constipation
